This is an account of results in patent publication EP4696689A1, “SALT FORM AND CRYSTAL FORM OF CHIRAL HETEROCYCLIC COMPOUND HAVING HEDGEHOG PATHWAY ANTAGONIST ACTIVITY” (Suzhou Kintor Pharmaceuticals, Inc., priority 2023, dated 2024).

The nature of one data set: in vivo. Conditions: male, C57, mouse, plasma, po, 10 mg/kg.
A short description of data set [1]: body weight of tumor-bearing mice during treatment.
Excerpt: (§1) 30 mice with uniform tumor sizes (Coefficient of Variation, CV < 30%, CV = Standard Deviation / Mean) were selected from this group. These mice were selected and randomly divided into five experimental groups according to Table 6-2, with six mice in each group and one group per cage. Drug administration began the day after grouping and lasted for 17 days with a frequency of twice daily (BID). The drug was discontinued after 17 days to observe tumor changes.
(§2) During routine examinations, animals were monitored for tumor growth, activity level, food intake, water consumption, weight gain or loss, eye, fur, and any other abnormal behaviors. Animal deaths and clinical abnormalities were recorded. Tumor volume (TV) was measured twice weekly using calipers and calculated using the formula: TV = 0.5a × b^2, wherein a is the longest diameter of the tumor and b is the shortest diameter. Body weight was recorded twice weekly, concurrently with tumor volume measurements.
(§3) If the animals' weight subsequently recovered to within a 10% loss compared to baseline, whether to continue the administration was based on the animals' condition. The in vivo experimental for an individual animal or the entire group would be terminated under the following conditions. The animals will be euthanized before death or coma. • ➢ If the animals' health condition deteriorated continuously, causing persistent suffering and is unable to eat or drink. • ➢ If the animal became emaciated, with a body weight loss exceeding 20% compared to the initial administration. • ➢ If the tumor volume of an individual mouse exceeded 3000 mm^3 or the mean tumor volume of the entire group exceeded 2000 mm^3.
In the next data set the test system is Gli1 Gene. Description: Gli1 mRNA expression in tumor tissues (RT-qPCR), Shh signaling pathway analysis. The class given is in vivo, CB-17/SCID mice. The conditions noted are these: 10 mg/kg i.g. BID × 3 days; tumor tissue 2 hours after last administration; GAPDH internal reference. From the text: Table 7-1 The Grouping and Drug Administration Plan
Primary tumor cells were extracted from Math1-Cre/Ptch1 ^C/C mice with spontaneous medulloblastoma and subcutaneously inoculated into CB-17/SCID mice to establish a xenograft model of medulloblastoma.
CB-17/SCID mice were subcutaneously injected with primary extracted medulloblastoma cells. After 3-4 weeks, a subset of mice developed tumors with volumes ranging from 150 to 300 mm^3.
From these mice, 25 tumor-bearing mice with uniform tumor sizes (with CV < 30%, CV = SD/Mean) were selected and randomly divided into 5 experimental groups (Vehicle, GDC-0449-10 mg/kg, Compound A-10 mg/kg, Compound A-3 mg/kg, Compound A-1 mg/kg) according to Table 2. Each group consisted of 5 mice per cage. Administration began on the day after grouping. The administration period was 3 days, with a frequency of BID. Tumor tissues were collected 2 hours after the last administration, and the mRNA expression level of the Glil gene in the tumor tissues was analyzed by RT-qPCR.
The tumor tissues were lysed by RNAiso Plius (TaKaRa, 108-95-2) to extractand RNA was then extracted using chloroform extraction and isopropanol precipitation methods. Subsequently, the mRNA level of the Glil gene was detected using a real-time fluorescence quantitative PCR instrument (ABI 7500), with GAPDH serving as the internal reference for quantitative analysis.
Experimental data in all tables are presented as "mean ± standard deviation" with error bars in figures representing standard error of the mean (SEM). Student's t-test was used to compare statistical differences in Glil gene mRNA expression levels in tumor tissues among treatment groups. All data were analyzed using GraphPad Prism 5.0. P-value <0.05 was considered statistically significant. ***, P<0.001; ##, P<0.01.
Glil is a target gene of the Hedgehog signaling pathway, and its mRNA expression level reflects the activation status of the hedgehog signaling pathway.
In general terms: In qPCR the cycle at which signal appears reflects the starting amount.

The conditions of data set [2]: SCID tumor-bearing mice, i.g. BID × 3 days.
Description: During routine examinations, animals were monitored for tumor growth, activity level, food intake, water consumption, weight gain or loss, eye, fur, and any other abnormal behaviors. Animal deaths and clinical abnormalities were recorded.
In data set [3] the test system is primary extracted medulloblastoma cells. Description: antitumor efficacy against medulloblastoma, subcutaneous xenograft model.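 Note: male CB-17/SCID mice bearing subcutaneous tumors, randomized at 150-300 mm^3, tumor volume from caliper diameters as 0.5 × longest × shortest squared, measured twice weekly.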 Conditions: 10 mg/kg i.g. BID, 17 days. The class given is in vivo, CB-17/SCID mice.
Description: 60 male CB-17/SCID mice (aged 6-8 weeks) were purchased from Shanghai SLAC Laboratory Animal Co., Ltd. Animals were housed in individually ventilated cages (IVCs), with five mice per cage. Housing conditions were as follows: temperature was maintained at 20-26°C; humidity was 30-70%; 12 hours of light and 12 hours of darkness.
as §1, §2, §3
All data were analyzed using GraphPad Prism 5.0. P value < 0.05 was considered statistically significant.
Data set [4] can be described thus: dynamic solubility in water and three biological solvents. Type of data set: physicochemical. The conditions noted are these: 37 °C, thermodynamic from solid. As for the experimental part:
Finally, the volume is fixed with purified water.
0.17 g of sodium dihydrogen phosphate (NaH2PO4, anhydrous), 0.021 g of sodium hydroxide and 0.31 g of sodium chloride were weighed into a 50 mL volumetric flask respectively, about 48 mL of purified water was added for dissolution, the pH was adjusted to exactly 6.5 with 1M hydrochloric acid or 1M sodium hydroxide, and the volume was fixed with purified water. 0.11 g of SIF powder was then added, stirred and sonicated to completely dissolve the powder. The solution can be used only after being placed at room temperature for two hours to reach equilibrium.
0.41 mL of glacial acetic acid, 0.20 g of sodium hydroxide and 0.59 g of sodium chloride were weighed into a 50 mL volumetric flask respectively, and about 48 mL of purified water was added for dissolution, the pH was adjusted to exactly 5.0 with 1M hydrochloric acid or 1M sodium hydroxide, and the volume was fixed with purified water. 0.56 g of SIF powder was then added, stirred and sonicated to completely dissolve the powder. The solution can be used only after being placed at room temperature for two hours to reach equilibrium.
The solubility results of the two samples in SGF, FASSIT and FeSSIF are similar. […] Table 4-1 Summary of the dynamic solubility test results

Data set [5] is described as follows: hygroscopicity evaluation by dynamic vapor sorption (DVS). Type of data set: physicochemical. On the procedure: The DVS curves were collected on a DVS Intrinsic from SMS (Surface Measurement Systems).The relative humidity at 25°C was corrected with the deliquescence points of LiCl, Mg (NO3)2 and KCl.
The nature of data set [6]: solid state stability (XRPD, HPLC, chiral purity). Type of data set: physicochemical. As for the experimental part: The purity test, the dynamic solubility and the stability test are tested by the Agilent 1260/1100 high performance liquid chromatograph, and the analysis conditions and chiral purity test analysis conditions of the high performance liquid chromatography test are respectively as follows.
After placing the amorphous free base and fumarate crystal form F of the compound of formula (I) at 25°C/60% RH and 40°C/75% RH for 1 week, the physical and chemical stability of the sample is detected by XRPD and HPLC (at the same time the chiral purity of the sample is tested). […] Table 4-2 Solid Stability Evaluation Summary

For data set [7] the following is noted: rats, P.O., 10 mg/kg; data from WO2018006756A1 (B1); cited from earlier work.
Setting [8] is: pH 1.8, simulated gastric fluid.

Description for in vivo: The collected plasma samples were subjected to a protein precipitation method by using an organic reagent according to the following method to extract test article in the plasma, and the extracted sample was subjected to quantitative concentration analysis through the LC-MS/MS.
Meanwhile, an accompanying standard curve and quality control samples were prepared for quantitative analysis.
The fumarate salt form F of the compound of formula (I) Group: 50 µL of plasma at each time point was taken, 400 µL of acetonitrile was added, vortex mixing and centrifugation was performed at 10000 rpm for 10 min, and a 200 µL supernatant for LC-MS/MS analysis was taken. Meanwhile, an accompanying standard curve and quality control samples were prepared for quantitative analysis.
According to the plasma drug concentration data obtained through analysis, the main pharmacokinetic parameters were calculated according to the non-atrioventricular model by using Kinetic software (Version 5.0).

Broadly, the AUC(0-inf) is total exposure, with the tail of the curve extrapolated. Low readings indicate low exposure, high ones high exposure. The term AUC(0-t) denotes the area under the concentration-time curve up to a stated or last time point. A word on the Cmax: it is the peak of the concentration-time curve. Broadly, the MRT is a mean duration of stay, worked out from the concentration-time curve. A word on the Tmax: it is the time from dosing to the highest level. The half-life is how long it takes for the measured level to halve. A low value points to rapid decline. In the case of `CS(=O)(=O)c1ccc(C(=O)Nc2ccc(Cl)c(-c3ccccn3)c2)c(Cl)c1` [GDC-0449, reference compound], in “in vivo”, the AUC(0-inf) came to 6650 ng·h/mL, the AUC(0-t) worked out at 6040 ng·h/mL, the peak level (Cmax) was 1270 ng/mL and the MRT amounted to 8.33 h. Besides, in “in vivo”, the Tmax was found to be 0.63 h and the half-life is 8.43 h. Also, the “Mean Body Weight at Day 0” value in data set [1] (10 mg/kg group, before treatment) stood at 23.7 ± 2.1 g. Moreover, in data set [1] (10 mg/kg i.g. BID, 17 days), the “Body Weight Change Rate (%)” value is given as 9.3% and the “Mean Body Weight at Dosing Endpoint” value stood at 25.9 ± 2.0 g. Also, in data set [1] (administered doses, i.g. BID × 17 days), the “impact on the body weight of tumor-bearing mice during the treatment period” value is recorded as “no significant impact”. In addition, the “mRNA Expression Level of Glil Gene” value with Gli1 Gene came out at 0.194 ± 0.074. The “abnormal behaviors or animal deaths during the administration period” value in [2] is listed as “no abnormal behaviors or animal deaths”. The “T/C (%)” value in data set [3] stood at 32.49%. Besides, in [3] (TGI = [1 - RTV(treatment group) / RTV(control group)] × 100%), the “TGI (%)” value stood at 67.51%.
A word on the solubility: it is the concentration that dissolves in the medium under given conditions. A lower solubility goes with little dissolved substance. In data set [4] (setting [8]), `Cc1cnc(-c2cc(N3CCc4nc(N5CCC(O)CC5)ncc4[C@H]3C)ncc2Cl)c(C)c1` [compound of formula (I), (R)-1-(6-(5'-chloro-3,5-dimethyl-[2,4'-bipyridin]-2'-yl)-5-methyl-5,6,7,8-tetrahydropyrido[4,3-d]pyrimidin-2-yl)piperidin-4-ol] displayed a solubility at 1 h of 4100 µg/mL, a solubility at 2 h of 3900 µg/mL, a solubility at 4 h of 4000 µg/mL and a solubility at 24 h of 3900 µg/mL. In addition, in data set [4] (pH 5, fessif), the solubility at 1 h is 3000 µg/mL, the solubility at 2 h was determined as 3000 µg/mL, the solubility at 4 h stood at 2900 µg/mL and the solubility at 24 h was determined as 2900 µg/mL. In data set [4] (pH 6.5, fassif), this compound had a solubility at 1 h of 210 µg/mL, a solubility at 2 h of 200 µg/mL, a solubility at 4 h of 240 µg/mL and a solubility at 24 h of 220 µg/mL. In data set [4] (water), the solubility at 1 h was determined as 13 µg/mL, the solubility at 2 h came to 16 µg/mL, the solubility at 4 h was 18 µg/mL and the solubility at 24 h was determined as 30 µg/mL. Besides, in data set [5] (0% RH-95% RH-0% RH, 25°C), the “crystal transformation or crystal form change after the DVS test (XRPD)” value is recorded as “no crystal transformation or crystal form change”. Further, in data set [5] (25°C/80%RH), the “Water adsorption (25°C/80%RH)” value is reported as 2.4 and the moisture adsorption is listed as 2.4%. In data set [6] (25°C/60%RH_1w), the “Chiral purity (%)” value is 98.7%, the “Purity (Area%)” value was found to be 99.0 Area% and the “Purity/Initial purity (%)” value came out at 100.0%. For the same compound, in [6] (40°C/75%RH_1w), the “Chiral purity (%)” value worked out at 98.7%, the “Purity (Area%)” value is on record as 98.9 Area% and the “Purity/Initial purity (%)” value came to 99.9%. Further, in data set [6] (Start), the “Chiral purity (%)” value came to 98.5% and the “Purity (Area%)” value is recorded as 99.0 Area%. The “Solid State Stability” value in data set [6] (summary, 25°C/60% RH and 40°C/75% RH for 1 week) is “good physical and chemical stability”. Further, in data set [7], the F% was 100%.
